BindingDB's records for patent US20250179094 (Medinno Pharmaceutical Technology (Zhuhai) Co., 2025)

Target: T1, TGF-beta receptor type-1 (Homo sapiens, UniProt P36897)
T1 sequence (P36897 whole entry): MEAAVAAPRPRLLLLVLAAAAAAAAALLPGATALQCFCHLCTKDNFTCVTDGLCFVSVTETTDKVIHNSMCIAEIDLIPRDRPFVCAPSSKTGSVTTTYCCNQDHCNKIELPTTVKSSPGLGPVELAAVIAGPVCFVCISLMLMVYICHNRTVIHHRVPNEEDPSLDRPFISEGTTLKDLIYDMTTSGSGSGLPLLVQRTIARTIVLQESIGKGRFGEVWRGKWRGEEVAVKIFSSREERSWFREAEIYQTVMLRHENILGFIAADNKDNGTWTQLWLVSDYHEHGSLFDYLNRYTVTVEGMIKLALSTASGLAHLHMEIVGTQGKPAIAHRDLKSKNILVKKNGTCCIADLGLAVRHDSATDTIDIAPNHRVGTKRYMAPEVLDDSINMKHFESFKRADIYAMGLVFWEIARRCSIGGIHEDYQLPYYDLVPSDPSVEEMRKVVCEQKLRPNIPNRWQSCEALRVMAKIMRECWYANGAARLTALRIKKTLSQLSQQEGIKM
Assay: Kinase Activity Assay
Procedure: The principle of the activity assay was that TGFβR1 phosphorylates the substrate TGFβR1tide, consuming ATP in the process. […] The specific experimental steps were as follows. Compounds were diluted 4-fold in DMSO in a dilution plate, with the final starting concentration of the compounds being 10 μM, across 10 concentration gradient points. The compounds were then further diluted 50-fold into the kinase reaction buffer and incubated on a shaker for 20 minutes. Kinase was formulated with an enzyme reaction buffer. 2 μl kinase was added to each well of the reaction plate. 1 μl of the compound diluted in buffer was added to each well, and then the plate was sealed with a sealing membrane and centrifuged at 1000 g for 30 seconds, leaving it at room temperature for 10 minutes. Solutions of TGFβR1tide and ATP were prepared with the kinase reaction buffer, and 2 μL of the TGFβR1tide/ATP solution was added to the reaction plate. The plate was sealed with a sealing film and centrifuged at 1000 g for 30 seconds. It was allowed to react at room temperature for 60 minutes. Subsequently, 4 μL of ADP-Glo was transferred to a 384-well reaction plate and centrifuged at 1000 rpm/min for 1 minute, followed by incubation at 25° C. for 40 minutes. Then, 8 μL of Detection solution was transferred to the 384-well reaction plate and centrifuged at 1000 rpm/min for 1 minute, after which it was incubated at 25° C. for 40 minutes. The RLU (Relative Luminescence Unit) signal was read using a BMG microplate reader, which was used to characterize the degree of kinase activity.

| Compound | IC50 |
| --- | --- |
| Cc1cccc(-c2nc[nH]c2-c2ccnc(-c3nc4c([nH]3)CN(C(=O)N3CCCC3)C4)c2)n1 [US20250179094, Compound 6] | 22 nM |
| Cc1cccc(-c2nc[nH]c2-c2ccnc(-c3nc4c([nH]3)CN(C(=O)N3CCN(C)CC3)C4)c2)n1 [US20250179094, Compound 7] | 1.1 nM |
| Cc1cccc(-c2nc3n(c2-c2ccnc(-c4nc5c([nH]4)CN(C(=O)N4CC[C@@H](O)C4)C5)c2)CCC3)n1 [US20250179094, Compound 15] | 16 nM |
| Cc1cccc(-c2nn(C(C)C)cc2-c2ccnc(-c3nc4c([nH]3)CN(C(=O)N3CCN(C)CC3)C4)c2)n1 [US20250179094, Compound 22] | 7.5 nM |
| Cc1cccc(-c2nn(Cc3ccccc3)cc2-c2ccnc(-c3nc4c([nH]3)CN(C(=O)N3CCN(C)CC3)C4)c2)n1 [US20250179094, Compound 23] | 0.9 nM |
| Cc1cccc(-c2nc3n(c2-c2ccnc(-c4nc5c([nH]4)CN(C(=O)N4CCC(O)CC4)C5)c2)CCC3)n1 [US20250179094, Compound 27] | 4.3 nM |
| Cc1cccc(-c2nc3n(c2-c2ccnc(-c4nc5c([nH]4)CN(C(=O)N4CCOCC4)C5)c2)CCC3)n1 [US20250179094, Compound 33] | 1.7 nM |
| Cc1cccc(-c2nc3n(c2-c2ccnc(-c4nc5c([nH]4)CN(C(=O)N4CC[C@@H](N(C)C)C4)C5)c2)CCC3)n1 [US20250179094, Compound 34] | 1.9 nM |
| Cc1cccc(-c2nn(C)cc2-c2ccnc(-c3nc4c([nH]3)CN(C(=O)N3CCN(C)CC3)C4)c2)n1 [US20250179094, Compound 37] | 6.5 nM |
| CCn1cc(-c2ccnc(-c3nc4c([nH]3)CN(C(=O)N3CCN(C)CC3)C4)c2)c(-c2cccc(C)n2)n1 [US20250179094, Compound 38] | 4.4 nM |
| Cc1cccc(-c2nn(Cc3cccc(F)c3)cc2-c2ccnc(-c3nc4c([nH]3)CN(C(=O)N3CCN(C)CC3)C4)c2)n1 [US20250179094, Compound 40] | 1.6 nM |
| Cc1cccc(-c2nn(CC3CC3)cc2-c2ccnc(-c3nc4c([nH]3)CN(C(=O)N3CCN(C)CC3)C4)c2)n1 [US20250179094, Compound 43] | 2.7 nM |
| Cc1cccc(-c2nn(Cc3ccccc3)cc2-c2ccnc(-c3nc4c([nH]3)CN(C(=O)C3CC(O)C3)C4)c2)n1 (centres undefined) [US20250179094, Compound 56] | 23 nM |
| Cc1cccc(-c2nn(Cc3cccc(F)c3)cc2-c2ccnc(-c3nc4c([nH]3)CN(C(=O)C3CC(O)C3)C4)c2)n1 (centres undefined) [US20250179094, Compound 57] | 9.9 nM |
| Cc1cccc(-c2nc3n(c2-c2ccnc(-c4nc5c([nH]4)CN(C(=O)N4CCN(C)CC4)C5)c2)CCOC3)n1 [US20250179094, Compound 61] | 6.9 nM |
| Cc1cccc(-c2nn3c(c2-c2ccnc(-c4nc5c([nH]4)CN(C(=O)N4CCN(C)CC4)C5)c2)CCC3)n1 [US20250179094, Compound 62] | 0.9 nM |
| Cc1cccc(-c2nn3c(c2-c2ccnc(-c4nc5c([nH]4)CN(C(=O)N4CCC(O)CC4)C5)c2)CCC3)n1 [US20250179094, Compound 70] | 2.3 nM |
| Cc1cccc(-c2nn3c(c2-c2ccnc(-c4nc5c([nH]4)CN(C(=O)N4CCOCC4)C5)c2)CCC3)n1 [US20250179094, Compound 71] | 0.67 nM |
| Cc1cccc(-c2nn3c(c2-c2ccnc(-c4nc5c([nH]4)CN(C(=O)N4CCCC4)C5)c2)CCC3)n1 [US20250179094, Compound 72] | 2 nM |
